Test results: US6747012B1, “Crystalline anthracycline antibiotic and process for producing the same” (Mercian Corporation, priority 1997, dated 2004)

Tests used:
Format in all cases: physicochemical
[1] = Tests for hygroscopicity (critical relative humidity); settings: for Critical relative humidity (%): stored at 30° C., relative humidities 32 to 91%, until steady state, calculated from increases or decreases in moisture content, hydrochloride
Protocol: Samples of the powders (or crystalline powders) obtained in Examples 1-8 were stored at 30° C. and at relative humidities ranging from 32 to 91%. Their moisture contents were measured until a steady state was reached.

[2] = Residual solvent content by gas chromatography; settings: for Residual solvent content (%): gas chromatography (GC), hydrochloride
Protocol: Each of the same samples as used in Example 12 was analyzed by gas chromatography (GC) to determine its residual solvent content.
(Operating Conditions for Analysis by GC)
Detector: Flame ionization detector.
Column temperature: Operated at 40° C. for 5 minutes, and then raised to 80° C. in 5 minutes and held at that temperature.
Vaporization chamber temperature: A constant temperature around 200°.
Flow rate: A constant flow rate at which the retention time of an internal standard substance (dioxane) is about 6 minutes.

[3] = Tests for chemical stability (storage at 60° C., HPLC); settings: for Amount of remaining DM (%): hermetically sealed container, 60° C. for 1 month, HPLC, hydrochloride
Protocol: Each of the same samples as used in Example 12 was placed in a hermetically sealed container and stored at 60° C. for 1 month. Then, the sample was analyzed by HPLC to determine the DM content in the sample.
(Conditions for Analysis by HPLC)
Column: YMC A-312 (ODS) (manufactured by YMC Co., Ltd.).
Mobile phase: Acetonitrile-water (38:62) (adjusted to pH 2.2 with phosphoric acid).
Flow velocity: About 1.5 ml/min.

SMILES | hygroscopicity (in words) ([1]; conclusion from Table 1) | Critical relative humidity (%) [1] | residual solvent content (in words) ([2]; conclusion from Table 3) | Residual solvent content (%) [2] | chemical stability (in words) ([3]; conclusion from Table 2) | Amount of remaining DM (%) [3]
COc1cccc2c1C(=O)c1c(O)c3c(c(O)c1C2=O)CC(O)(C(C)=O)CC3OC1CC(N)C(O)C(C)O1.Cl (stereo not drawn) [Ex.2, DM hydrochloride] | very low hygroscopicity | 73% | within an acceptable limit | 0.40% | excellent chemical stability | 100%
COc1cccc2c1C(=O)c1c(O)c3c(c(O)c1C2=O)CC(O)(C(C)=O)CC3OC1CC(N)C(O)C(C)O1.Cl (stereo not drawn) [Ex.7, DM hydrochloride] |  | 41% |  | 0.05% |  | 97.2%
COc1cccc2c1C(=O)c1c(O)c3c(c(O)c1C2=O)CC(O)(C(C)=O)CC3OC1CC(N)C(O)C(C)O1.Cl (stereo not drawn) [Ex.4, DM hydrochloride] |  | 28% |  | 0.50% |  | 90.4%
COc1cccc2c1C(=O)c1c(O)c3c(c(O)c1C2=O)CC(O)(C(C)=O)CC3OC1CC(N)C(O)C(C)O1.Cl (stereo not drawn) [Ex.3, DM hydrochloride] |  | 41% |  | 0.03% |  | 97.1%
COc1cccc2c1C(=O)c1c(O)c3c(c(O)c1C2=O)CC(O)(C(C)=O)CC3OC1CC(N)C(O)C(C)O1.Cl (stereo not drawn) [Ex.5, DM hydrochloride] |  | 29% |  | 0.19% |  | 97.5%
COc1cccc2c1C(=O)c1c(O)c3c(c(O)c1C2=O)CC(O)(C(C)=O)CC3OC1CC(N)C(O)C(C)O1.Cl (stereo not drawn) [Ex.8, DM hydrochloride] |  | 53% |  | 0.95% |  | 96.5%
COc1cccc2c1C(=O)c1c(O)c3c(c(O)c1C2=O)CC(O)(C(C)=O)CC3OC1CC(N)C(O)C(C)O1.Cl (stereo not drawn) [Ex.6, DM hydrochloride] |  | 29% |  | 0.18% |  | 94.2%
COc1cccc2c1C(=O)c1c(O)c3c(c(O)c1C2=O)CC(O)(C(C)=O)CC3OC1CC(N)C(O)C(C)O1.Cl (stereo not drawn) [Ex.1, DM hydrochloride] |  | 34% |  | 0.14% |  | 91.4%
